{
  "source": "paper PMC10149367",
  "about": "“The ferroptosis inducing compounds RSL3 and ML162 are not direct inhibitors of GPX4 but of TXNRD1” (Redox Biology, 2023)",
  "key": {"[1]": {"test_system": "A549 cells", "test": "A549 viability in cellular TXNRD1 (RX1) experiments", "conditions": "A549, 4 h, Extended Data Fig. 3A", "protocol": "Cellular TXNRD1 assay—20,000 or 10,000 A549 cells (for 4 h or 12 h and 24 h compound incubation respectively) were seeded in 96-well plates (microplates, 96 well, F-bottom, black, clear bottom, ViewPlateTM-96 F TC, PerkinElmer), in a total volume of 100 μL full DMEM (supplemented with 10% FBS and 100 nM Na2SeO3). The cells were incubated for 16 h at 37 °C and 5% CO2, followed by media change and addition of indicated compounds at respective concentrations (0.1 μM–20 μM), including 0.6% DMSO. The cells were subsequently incubated for the respective mentioned time, washed once with full DMEM and fresh, full DMEM, containing 75 μM RX1 and 0.75% DMSO, was added and the first fluorescent measurement was conducted immediately (timepoint = 0) using a Tecan Infinite M200 plate reader (ex/em 355/520). To follow the kinetic activation of RX1, a fluorescent measurement was done every hour for 6 h. Between measurements, cells were stored at 37 °C and 5% CO2. As a control, cells treated with compounds, but not with RX1, just the respective DMSO content, were used for background fluorescent. To determine how the cells were viable throughout the RX1 assay, the control cells were used for a viability measurement, using CellTiter-Glo® Luminescent Cell Viability Assay, after the final fluorescent measurement. For final data analysis, raw data was processed using Microsoft Excel and GraphPad Prism. In brief, the slope of the activated RX1 fluorescence increase was in each case calculated and normalized, using the viability measurement of the control cells.\nExtended Data Figure 3: A549 cytotoxicity in cellular TXNRD1 experiments following final\nA) Cell viability following 4-hour incubation with\ncompounds; B) Viability following 12-hour incubation with compounds; C) Viability\nfollowing 24 -hour incubation with compounds. The cell viability in was in each case measured\nusing the Cell Quanti-BlueTM Cell Viability Assay Kit and the data are presented as mean ±\ns.d. of n = 3 biological replicates, each containing n = 3 technical replicates."}, "[2]": {"test_system": "A549 cells", "test": "Cytotoxicity assay, A549 cells", "assay_type": "cell-based, human", "procedure": "Cell culture—H1975 and A549 cells were cultured in RPMI-1640 medium (HyClone) with Earle's salts supplemented and penicillin/streptomycin (100 μg/ml), while HT1080 cells were cultured in MEM medium for Fig. 2 experiments. For all other cellular experiments, A549 cells were cultured in DMEM 4.5 g/L glucose medium (Gibco), and H1975 cells in RPMI-1640 ATCC Modification (Gibco). Cell cultures were maintained at 37 °C in 5% CO2 in a medium containing 10% fetal bovine serum (FBS) (GE Healthcare, A15-102 for Fig. 2 experiments and Sigma, F7524 for all others). Experiments were performed with or without supplementation with 100 nM sodium selenite as described.\nCytotoxicity assays— Cells were seeded in a 96-well plate at the density of 3 × 10^3 per well and allowed to adhere overnight. After which, cells were treated with various concentrations of compound for the indicated times, whereupon cell viability was determined using Cell Quanti-Blue™ Cell Viability Assay Kits (Nordic Diagnostica, CQBL-10K). Briefly, QUANTI-Blue Reagent (10 μL) was added to each well, incubated at 37 °C in 5% CO2 for 3 h, and then the plates were measured at 540nm/600 nm (Ex/Em) using the Tecan Microplate Reader (Morrisville NC, USA)."}, "[3]": {"biological_target": "T1, TXNRD1 (Homo sapiens, UniProt Q16881)", "T1 construct": "made in house", "T1 sequence (Q16881 1-499 isoform Q16881-5)": "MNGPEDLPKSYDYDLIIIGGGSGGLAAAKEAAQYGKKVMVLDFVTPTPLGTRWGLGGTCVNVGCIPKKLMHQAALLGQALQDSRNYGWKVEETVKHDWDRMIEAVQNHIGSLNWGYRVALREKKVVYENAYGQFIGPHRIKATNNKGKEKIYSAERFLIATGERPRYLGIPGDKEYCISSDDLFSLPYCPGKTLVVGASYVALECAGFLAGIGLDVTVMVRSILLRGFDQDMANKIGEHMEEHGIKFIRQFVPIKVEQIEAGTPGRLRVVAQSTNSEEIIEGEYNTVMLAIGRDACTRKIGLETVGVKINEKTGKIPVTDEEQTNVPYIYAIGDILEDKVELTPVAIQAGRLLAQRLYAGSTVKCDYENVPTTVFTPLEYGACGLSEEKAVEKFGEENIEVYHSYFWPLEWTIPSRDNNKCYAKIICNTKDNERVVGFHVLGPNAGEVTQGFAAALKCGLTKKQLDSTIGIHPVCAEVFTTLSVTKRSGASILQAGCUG", "test": "TXNRD1 activity assay, pure enzyme (Fig. 1A)", "assay_type": "biochemical", "procedure": "Recombinant human proteins—Recombinant human selenoprotein GPX and TXNRD isoenzymes as well as recombinant human GR were cloned, expressed, and purified as described previously [[26], [27], [28]].\nTXNRD1 selenite and DTNB assays were run as previously described [[26], [27], [28]]. Dose-response curves and IC50s were generated using Excel and GraphPad Prism. Briefly, initial slopes of NADPH consumption were normalized to DMSO controls and IC50s were calculated using log(inhibitor) vs. response—Variable slope (four parameters)."}, "[4]": {"test_system": "GPX4", "parameters": "method as in PMID 34788728", "conditions": "cited from earlier work"}, "[5]": {"biological_target": "T1, TXNRD1", "test": "nano differential scanning fluorimetry, TXNRD1", "assay_type": "binding", "conditions": "100 μM compound", "procedure": "Nano differential scanning fluorimetry—Real-time monitoring of fluorescence emission at 330 nm and 350 nm (excitation wavelength: 280 nm) and backscattering absorbance of GPX4 and TXNRD1 samples in the presence of compound was performed using a NanoTemper Prometheus NT.48 instrument. […] Standard capillaries were used, and temperature was increased from 25 to 95 °C with a ramp rate of 4.0 °C/min. Three biological replicates were carried out for each condition, and their means and standard deviations are depicted."}, "[6]": {"test_system": "malondialdehyde (MDA) and Ptgs2 mRNA levels", "parameters": "method as in PMID 32732975", "conditions": "C57BL/6 mice; rescued with Fer-1; cited from earlier work"}, "[7]": {"biological_target": "T2, TXNRD1 (Homo sapiens, UniProt Q16881)", "T2 construct": "RX1 probe that specifically reports upon TXNRD1 enzymatic activity in live cells; endogenous in cells; host or cells: A549", "T2 sequence (Q16881 151-649 limits assumed)": "T1 sequence (Q16881 1-499 isoform Q16881-5)", "test": "Cellular TXNRD1 assay with RX1 probe in A549 cells", "assay_type": "cell-based", "conditions": "A549, 4 h incubation; RSL3 and ML162 at 1 μM or higher", "protocol": "Cellular TXNRD1 assay—20,000 or 10,000 A549 cells (for 4 h or 12 h and 24 h compound incubation respectively) were seeded in 96-well plates (microplates, 96 well, F-bottom, black, clear bottom, ViewPlateTM-96 F TC, PerkinElmer), in a total volume of 100 μL full DMEM (supplemented with 10% FBS and 100 nM Na2SeO3). […] The cells were subsequently incubated for the respective mentioned time, washed once with full DMEM and fresh, full DMEM, containing 75 μM RX1 and 0.75% DMSO, was added and the first fluorescent measurement was conducted immediately (timepoint = 0) using a Tecan Infinite M200 plate reader (ex/em 355/520). To follow the kinetic activation of RX1, a fluorescent measurement was done every hour for 6 h. Between measurements, cells were stored at 37 °C and 5% CO2. As a control, cells treated with compounds, but not with RX1, just the respective DMSO content, were used for background fluorescent. To determine how the cells were viable throughout the RX1 assay, the control cells were used for a viability measurement, using CellTiter-Glo® Luminescent Cell Viability Assay, after the final fluorescent measurement. For final data analysis, raw data was processed using Microsoft Excel and GraphPad Prism. In brief, the slope of the activated RX1 fluorescence increase was in each case calculated and normalized, using the viability measurement of the control cells."}, "[8]": {"biological_target": "T3, GPX4 (Homo sapiens, UniProt P36969)", "T3 construct": "We thus performed immunoblot analyses for GPX4 in A549 cells; endogenous in cells; host or cells: A549", "T3 sequence (P36969 1-197)": "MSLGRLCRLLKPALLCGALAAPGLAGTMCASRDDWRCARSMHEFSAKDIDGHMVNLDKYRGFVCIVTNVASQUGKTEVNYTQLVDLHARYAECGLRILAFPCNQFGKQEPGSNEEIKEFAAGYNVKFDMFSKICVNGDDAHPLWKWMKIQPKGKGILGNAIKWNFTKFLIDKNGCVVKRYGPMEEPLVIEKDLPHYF", "test": "GPX4 immunoblot of treated A549 cells", "assay_type": "cell-based", "conditions": "A549, 3 μM, 24 h", "procedure": "Western blots—A549 and H1975 cells cultured for at least 72 h in the presence of 100 nM Na2SeO3 (Sigma) were seeded in 90 mm dishes (VWR) at 1 × 10^6 cells per dish for 18 h prior to main treatments. Four hours after seeding dishes, cells were pretreated with 2 μM Fer-1 for 14 h prior to adding RSL3, when indicated. After 14 h, main treatments with TRi-1, TRi-2, RSL3, ML162, ML210 or 0.03% v/v DMSO in doses indicated in each figure were added for 6 or 24 h. Total DMSO content was 0.05%. Cells were then scraped, washed in PBS, and suspended in 150–200 μL lysis buffer containing 50 mM Tris-HCl (pH 7.5), 2 mM EDTA, 0.15 M NaCl, 1% Triton X-100, and cOmplete protease inhibitor cocktail (Roche). Supernatants were collected after 30 s of sonication, and 30 min centrifugation at 17000×g, and protein concentration was measured using Pierce bicinchoninic acid (BCA) protein assay kit (Thermo Fischer Scientific). […] Chemiluminescent signal was detected using anti-rabbit and anti-mouse HRP-IgG secondary antibodies (Southern Biotech, 4030–05, LOT A2718-MM00 and 1030–05, LOT L3919-XE81B respectively) and ECL detection reagent (Cytiva Amersham). Protein quantification based on band densitometry was performed in Quantity One and Image Lab (BioRad)."}, "[9]": {"parameters": "method as in PMID 29444979", "conditions": "given at high doses to mice; cited from earlier work"}},
  "data": [
    {"smiles": "COc1ccc([N+](=O)[O-])c(S(=O)(=O)c2ccc(Cl)cc2)n1", "note": "[TRi-1]", "values": [
      {"measurement": "Effect on cell viability at 4 h", "setting": "[1]", "result": "no overt effects on viability"},
      {"measurement": "IC50", "setting": "[2]; 24 h, media not supplemented with selenium", "result": "~20", "unit": "µM"},
      {"measurement": "Effect of ferrostatin-1 or MitoTEMPO co-treatment on cytotoxicity", "setting": "[2]; A549, 24 h, no selenium supplementation", "result": "co-treatment with neither ferrostatin-1 nor MitoTEMPO had any effect"},
      {"measurement": "Cell viability", "setting": "[2]; A549, 24 h, under all tested conditions (with/without Se, blockers)", "result": "about 40%"},
      {"measurement": "Difference in response profiles between cell lines", "setting": "[2]; A549, H1975 and HT1080, 24 h", "result": "no stark difference in response profiles"},
      {"measurement": "Specificity among GPX1, GPX4, GR and TXNRD1", "setting": "[3]; pure enzyme systems, Fig. 1A lower panels", "result": "specific inhibitors of TXNRD1"},
      {"measurement": "IC50", "setting": "[3]; recombinant TXNRD1, Fig. 1A assay conditions, read-out: IC50 TXNRD1 inhibition", "result": "~0.5", "unit": "µM"},
      {"measurement": "Effect on GPX4 thermostability", "setting": "[4]", "result": "no major effect"},
      {"measurement": "Thermal stabilization of TXNRD1", "setting": "[5]", "result": "displaying thermal stabilization of the enzyme"},
      {"measurement": "MDA and Ptgs2 levels", "setting": "[6]", "result": "increase MDA and Ptgs2 levels"},
      {"measurement": "Effect on cellular TXNRD1 activity (RX1) at 4 h", "setting": "[7]", "result": "effectively inhibit cellular TXNRD1 activity"},
      {"measurement": "GPX4 expression levels compared to DMSO controls (immunoblot)", "setting": "[8]", "result": "no obvious changes in its expression levels"},
      {"measurement": "Antitumoral effect in mice", "setting": "[9]", "result": "antitumoral properties"},
      {"measurement": "Toxicity to mice", "setting": "[9]", "result": "lack overt toxicity"}
    ]}
  ]
}
